From patent US7705038B2, “Control of parasites in animals by the use of parasiticidal 2-phenyl-3-(1H-pyrrol-2-yl)acrylonitrile derivatives” (Intervet, Inc., priority 2004, dated 2010)

Experiments:
[1] = tested on: cat fleas (Ctenocephalides felis); test: Contact activity against cat fleas (LC50, % kill); conditions: for % Kill: percent of a sample of cat fleas killed at a concentration of 1.26 μg/cm^2; for LC50: concentration required to kill 50% of the sample of cat fleas on contact; for pest or weed control at 1.26 µg/cm2, 1.26 µg/cm2: Ctenocephalides felis, read-out: % Kill
Excerpt: (§1) Exemplified compounds of Formula 1 are listed by Tables 1a and 1b, above. The activity of these compounds against Haemonchus contortus and cat fleas (Ctenocephalides felis) is summarized by Table 7, below.

Haemonchus contortus = test: Activity against Haemonchus contortus (LD99); conditions: dose required to kill 99% of the sample of Haemonchus contortus
Excerpt: as §1
The LD99 value is the dose, expressed as μg/ml, that was required to kill 99% of the sample of Haemonchus contortus.

Structure (SMILES) | % Kill [1] | LD99 (Haemonchus contortus) | LC50 [1] | pest or weed control at 1.26 µg/cm2, 1.26 µg/cm2 [1] | EC99 (Haemonchus contortus)
N#C/C(=C\c1ccc[nH]1)c1ccc(F)c(F)c1 [Compound 47] | 17% | 0.75 µg/mL | – | – | –
N#C/C(=C\c1ccc[nH]1)c1cccc(F)c1 [Compound 10] | 78% | 1.625 µg/mL | 0.78 μg/cm^2 | – | –
CCOCn1cccc1/C=C(\C#N)c1ccc(C(F)(F)F)cc1 [Compound 8] | 6% | 5 µg/mL | – | – | –
N#C/C(=C\c1ccc[nH]1)c1cccc(Br)c1 [Compound 39] | 24% | 0.938 µg/mL | – | – | –
N#C/C(=C\c1ccc[nH]1)c1cccc(Cl)c1 [Compound 1] | 28% | 0.75 µg/mL | – | – | –
N#C/C(=C\c1ccc[nH]1)c1c(F)cccc1Cl [Compound 67] | 7% | — (the symbol ‘—’ indicates tested but inactive up to 15 μg/ml) | – | – | –
N#C/C(=C\c1ccc[nH]1)c1ccc(-c2ccccc2)cc1 [Compound 18] | 46% | 7.5 µg/mL | – | – | –
CCC(=O)n1cccc1/C=C(\C#N)c1ccc(Cl)cc1 [Compound 76, (Z)-2-(4-Chlorophenyl)-3-(1-propanoyl-1H-pyrrol-2-yl)acrylonitrile] | – | – | – | 12% | 0.375 µg/mL
Cc1ccc(/C(C#N)=C/c2ccc[nH]2)cc1 [Compound 26] | 69% | 0.938 µg/mL | – | – | –
N#C/C(=C\c1cc(Br)c[nH]1)c1ccc(Cl)c(Cl)c1 [Compound 29] | 15% | 5 µg/mL | – | – | –
N#C/C(=C\c1ccc[nH]1)c1cccc2ccccc12 [Compound 32, 2-(1-naphthyl)-3-(1H-pyrrol-2-yl)acrylonitrile] | – | – | – | 42% | 0.234 µg/mL
CC(C)c1ccc(/C(C#N)=C/c2ccc[nH]2)cc1 [Compound 87] | 100% | — (the symbol ‘—’ indicates tested but inactive up to 15 μg/ml) | – | – | –
CCc1ccc(/C(C#N)=C/c2ccc[nH]2)cc1 [Compound 75] | 58% | 0.875 µg/mL | – | – | –
N#C/C(=C\c1cccn1C(=O)OCc1ccccc1)c1ccc(Cl)cc1 [Compound 86] | 20% | 5.5 µg/mL | – | – | –
N#C/C(=C\c1ccc[nH]1)c1ccccc1C#N [Compound 37] | 11% | — (the symbol ‘—’ indicates tested but inactive up to 15 μg/ml) | – | – | –
Cn1cccc1/C=C(\C#N)c1cccc(Cl)c1 [Compound 5] | 6% | 3 µg/mL | – | – | –
Cn1cccc1/C=C(\C#N)c1cccc(C(F)(F)F)c1 [Compound 22] | 19% | 5.5 µg/mL | – | – | –
Cc1ccccc1/C(C#N)=C/c1ccc[nH]1 [Compound 16, (Z)-2-(2-Methyl-phenyl)-3-(1H-pyrrol-2-yl)acrylonitrile] | – | – | 0.076 μg/cm^2 | 100% | 3.75 µg/mL
CC(C)(C)OC(=O)n1cccc1/C=C(\C#N)c1ccc(Cl)cc1 [Compound 79] | 9% | 3.75 µg/mL | – | – | –
N#C/C(=C\c1cc(Br)c[nH]1)c1ccc(C(F)(F)F)cc1 [Compound 11] | 18% | — (the symbol ‘—’ indicates tested but inactive up to 15 μg/ml) | – | – | –
